Numbers after ± are expanded uncertainties.
Assay: xn = mol fraction of the nth substance listed
Details: Liquid, Vibrating tube method

CCCCCCCC [octane] + CCCCCC
Details	mass density [kg/m3]
352.91 K, 7000 kPa, x2 = 0.1654	656.4 ± 0.32
352.91 K, 7000 kPa, x2 = 0.9308	619.06 ± 0.34
352.91 K, 8000 kPa, x2 = 0.1654	657.6 ± 0.33
352.91 K, 8000 kPa, x2 = 0.9308	620.53 ± 0.35
352.91 K, 9000 kPa, x2 = 0.1654	658.8 ± 0.33
352.91 K, 9000 kPa, x2 = 0.9308	621.96 ± 0.36
352.91 K, 10000 kPa, x2 = 0.1654	659.99 ± 0.34
352.91 K, 10000 kPa, x2 = 0.9308	623.39 ± 0.37
352.91 K, 11000 kPa, x2 = 0.1654	661.15 ± 0.35
352.91 K, 11000 kPa, x2 = 0.9308	624.78 ± 0.38
352.91 K, 12000 kPa, x2 = 0.1654	662.28 ± 0.36
352.91 K, 12000 kPa, x2 = 0.9308	626.15 ± 0.39
352.91 K, 13000 kPa, x2 = 0.1654	663.41 ± 0.37
352.91 K, 13000 kPa, x2 = 0.9308	627.49 ± 0.4
352.91 K, 14000 kPa, x2 = 0.1654	664.53 ± 0.38
352.91 K, 14000 kPa, x2 = 0.9308	628.8 ± 0.41
352.91 K, 15000 kPa, x2 = 0.1654	665.63 ± 0.39
352.91 K, 15000 kPa, x2 = 0.9308	630.08 ± 0.42
352.91 K, 16000 kPa, x2 = 0.1654	666.68 ± 0.4
352.91 K, 16000 kPa, x2 = 0.9308	631.35 ± 0.43
352.91 K, 17000 kPa, x2 = 0.1654	667.73 ± 0.41
352.91 K, 17000 kPa, x2 = 0.9308	632.57 ± 0.45
352.91 K, 18000 kPa, x2 = 0.1654	668.76 ± 0.42
352.91 K, 18000 kPa, x2 = 0.9308	633.78 ± 0.46
352.91 K, 19000 kPa, x2 = 0.1654	669.76 ± 0.43
352.91 K, 19000 kPa, x2 = 0.9308	634.96 ± 0.47
352.91 K, 20000 kPa, x2 = 0.1654	670.78 ± 0.44
352.91 K, 20000 kPa, x2 = 0.9308	636.11 ± 0.48
352.91 K, 21000 kPa, x2 = 0.1654	671.71 ± 0.45
352.91 K, 21000 kPa, x2 = 0.9308	637.22 ± 0.49
352.91 K, 22000 kPa, x2 = 0.1654	672.65 ± 0.46
352.91 K, 22000 kPa, x2 = 0.9308	638.32 ± 0.5
352.91 K, 23000 kPa, x2 = 0.1654	673.59 ± 0.46
352.91 K, 23000 kPa, x2 = 0.9308	639.39 ± 0.51
352.91 K, 24000 kPa, x2 = 0.1654	674.5 ± 0.47
352.91 K, 24000 kPa, x2 = 0.9308	640.43 ± 0.52
352.91 K, 25000 kPa, x2 = 0.1654	675.39 ± 0.48
352.91 K, 25000 kPa, x2 = 0.9308	641.44 ± 0.54
352.92 K, 1000 kPa, x2 = 0.7995	618.46 ± 0.28
352.92 K, 2000 kPa, x2 = 0.7995	619.98 ± 0.29
352.92 K, 3000 kPa, x2 = 0.7995	621.51 ± 0.3
352.92 K, 4000 kPa, x2 = 0.7995	623 ± 0.31
352.92 K, 5000 kPa, x2 = 0.7995	624.48 ± 0.32
352.92 K, 6000 kPa, x2 = 0.7995	625.93 ± 0.33
352.92 K, 7000 kPa, x2 = 0.7995	627.37 ± 0.34
352.92 K, 8000 kPa, x2 = 0.7995	628.79 ± 0.35
352.92 K, 9000 kPa, x2 = 0.7995	630.18 ± 0.36
352.92 K, 10000 kPa, x2 = 0.7995	631.54 ± 0.37
352.92 K, 11000 kPa, x2 = 0.7995	632.86 ± 0.38
352.92 K, 12000 kPa, x2 = 0.7995	634.17 ± 0.39
352.92 K, 13000 kPa, x2 = 0.7995	635.46 ± 0.4
352.92 K, 14000 kPa, x2 = 0.7995	636.72 ± 0.41
352.92 K, 15000 kPa, x2 = 0.7995	637.96 ± 0.42
352.92 K, 16000 kPa, x2 = 0.7995	639.16 ± 0.43
352.92 K, 17000 kPa, x2 = 0.7995	640.35 ± 0.44
352.92 K, 18000 kPa, x2 = 0.7995	641.51 ± 0.45
352.92 K, 19000 kPa, x2 = 0.7995	642.64 ± 0.46
352.92 K, 20000 kPa, x2 = 0.7995	643.75 ± 0.47
352.92 K, 21000 kPa, x2 = 0.7995	644.82 ± 0.48
352.92 K, 22000 kPa, x2 = 0.7995	645.88 ± 0.49
352.92 K, 23000 kPa, x2 = 0.7995	646.92 ± 0.5
352.92 K, 24000 kPa, x2 = 0.7995	647.94 ± 0.51
352.92 K, 25000 kPa, x2 = 0.7995	648.91 ± 0.53
362.76 K, 1000 kPa, x2 = 0.5749	622.07 ± 0.28
362.76 K, 2000 kPa, x2 = 0.5749	623.63 ± 0.29
362.76 K, 3000 kPa, x2 = 0.5749	625.2 ± 0.3
362.76 K, 4000 kPa, x2 = 0.5749	626.68 ± 0.3
362.76 K, 5000 kPa, x2 = 0.5749	628.17 ± 0.31
362.76 K, 6000 kPa, x2 = 0.5749	629.67 ± 0.32
362.76 K, 7000 kPa, x2 = 0.5749	631.09 ± 0.33
362.76 K, 8000 kPa, x2 = 0.5749	632.53 ± 0.34
362.76 K, 9000 kPa, x2 = 0.5749	633.92 ± 0.35
362.76 K, 10000 kPa, x2 = 0.5749	635.27 ± 0.36
362.76 K, 11000 kPa, x2 = 0.5749	636.64 ± 0.37
362.76 K, 12000 kPa, x2 = 0.5749	637.96 ± 0.38
362.76 K, 13000 kPa, x2 = 0.5749	639.28 ± 0.39
362.76 K, 14000 kPa, x2 = 0.5749	640.55 ± 0.4
362.76 K, 15000 kPa, x2 = 0.5749	641.82 ± 0.41
362.76 K, 16000 kPa, x2 = 0.5749	643.03 ± 0.42
362.76 K, 17000 kPa, x2 = 0.5749	644.23 ± 0.43
362.76 K, 18000 kPa, x2 = 0.5749	645.42 ± 0.44
362.76 K, 19000 kPa, x2 = 0.5749	646.56 ± 0.45
362.76 K, 20000 kPa, x2 = 0.5749	647.68 ± 0.46
362.76 K, 21000 kPa, x2 = 0.5749	648.78 ± 0.47
362.76 K, 22000 kPa, x2 = 0.5749	649.86 ± 0.48
362.76 K, 23000 kPa, x2 = 0.5749	650.91 ± 0.49
362.76 K, 24000 kPa, x2 = 0.5749	651.95 ± 0.51
362.76 K, 25000 kPa, x2 = 0.5749	652.96 ± 0.52
362.88 K, 1000 kPa, x2 = 0.1654	640.2 ± 0.27
362.88 K, 1000 kPa, x2 = 0.2199	637.97 ± 0.27
362.88 K, 2000 kPa, x2 = 0.1654	641.61 ± 0.28
362.88 K, 2000 kPa, x2 = 0.2199	639.42 ± 0.28
362.88 K, 3000 kPa, x2 = 0.1654	642.98 ± 0.29
362.88 K, 3000 kPa, x2 = 0.2199	640.79 ± 0.29

Reference: the NIST ThermoML archive (doi:10.1021/je200721d)
